# Assay results as given in PubChem BioAssay (NCI).
#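 Following 48 hours of exposure in 96-well plates, responses at five concentrations were used to interpolate endpoints linearly. TGI denotes the concentration required for complete inhibition of growth.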
# Assays:
# Test in all cases: NCI tumour cell line growth inhibition, 48 h
# 786-0 renal = tested on: 786-0 renal
# A498 renal = tested on: A498 renal
# A549 NSCLC = tested on: A549 NSCLC
# ACHN renal = tested on: ACHN renal
# BT-549 breast = tested on: BT-549 breast
# CAKI-1 renal = tested on: CAKI-1 renal
# CCRF-CEM leukemia = tested on: CCRF-CEM leukemia
# COLO 205 colon = tested on: COLO 205 colon
# DLD-1 colon = tested on: DLD-1 colon
# DMS 114 small cell lung = tested on: DMS 114 small cell lung
# DMS 273 small cell lung = tested on: DMS 273 small cell lung
# DU-145 prostate = tested on: DU-145 prostate
# EKVX NSCLC = tested on: EKVX NSCLC
# HCC-2998 colon = tested on: HCC-2998 colon
# HCT-116 colon = tested on: HCT-116 colon
# HCT-15 colon = tested on: HCT-15 colon
# HL-60(TB) leukemia = tested on: HL-60(TB) leukemia
# HOP-18 NSCLC = tested on: HOP-18 NSCLC
# HOP-62 NSCLC = tested on: HOP-62 NSCLC
# HOP-92 NSCLC = tested on: HOP-92 NSCLC
# HS 578T breast = tested on: HS 578T breast
# HT29 colon = tested on: HT29 colon
# IGROV1 ovarian = tested on: IGROV1 ovarian
# K-562 leukemia = tested on: K-562 leukemia
# KM12 colon = tested on: KM12 colon
# KM20L2 colon = tested on: KM20L2 colon
# LOX IMVI melanoma = tested on: LOX IMVI melanoma
# LXFL 529 NSCLC = tested on: LXFL 529 NSCLC
# M14 melanoma = tested on: M14 melanoma
# M19-MEL melanoma = tested on: M19-MEL melanoma
# MALME-3M melanoma = tested on: MALME-3M melanoma
# MCF7 breast = tested on: MCF7 breast
# MDA-MB-231 breast = tested on: MDA-MB-231 breast
# MDA-MB-435 = tested on: MDA-MB-435
# MDA-N = tested on: MDA-N
# MOLT-4 leukemia = tested on: MOLT-4 leukemia
# NCI-H226 lung = tested on: NCI-H226 lung
# NCI-H23 lung = tested on: NCI-H23 lung
# NCI-H460 lung = tested on: NCI-H460 lung
# NCI-H522 lung = tested on: NCI-H522 lung
# NCI/ADR-RES ovarian = tested on: NCI/ADR-RES ovarian
# OVCAR-3 ovarian = tested on: OVCAR-3 ovarian
# OVCAR-4 ovarian = tested on: OVCAR-4 ovarian
# OVCAR-5 ovarian = tested on: OVCAR-5 ovarian
# OVCAR-8 ovarian = tested on: OVCAR-8 ovarian
# PC-3 prostate = tested on: PC-3 prostate
# RPMI-8226 leukemia = tested on: RPMI-8226 leukemia
# RXF 393 renal = tested on: RXF 393 renal
# RXF-631 renal = tested on: RXF-631 renal
# SF-268 CNS = tested on: SF-268 CNS
# SF-295 CNS = tested on: SF-295 CNS
# SF-539 CNS = tested on: SF-539 CNS
# SK-MEL-2 melanoma = tested on: SK-MEL-2 melanoma
# SK-MEL-28 melanoma = tested on: SK-MEL-28 melanoma
# SK-MEL-5 melanoma = tested on: SK-MEL-5 melanoma
# SK-OV-3 ovarian = tested on: SK-OV-3 ovarian
# SN12C renal = tested on: SN12C renal
# SNB-19 CNS = tested on: SNB-19 CNS
# SNB-75 CNS = tested on: SNB-75 CNS
# SNB-78 CNS = tested on: SNB-78 CNS
# SR leukemia = tested on: SR leukemia
# SW-620 colon = tested on: SW-620 colon
# T-47D breast = tested on: T-47D breast
# TK-10 renal = tested on: TK-10 renal
# U251 CNS = tested on: U251 CNS
# UACC-257 melanoma = tested on: UACC-257 melanoma
# UACC-62 melanoma = tested on: UACC-62 melanoma
# UO-31 renal = tested on: UO-31 renal
# XF 498 CNS = tested on: XF 498 CNS
# P388 leukemia = tested on: P388 leukemia
# P388/ADR leukemia = tested on: P388/ADR leukemia
# SN12K1 renal = tested on: SN12K1 renal
smiles,measurement,setting,value
COC(=O)C1=C(C=O)C2C=CC1C2 (centres undefined),TGI,786-0 renal,> 100 µM
same,TGI,A498 renal,> 100 µM
same,TGI,A549 NSCLC,> 100 µM
same,TGI,ACHN renal,> 81.2 µM
same,TGI,BT-549 breast,> 100 µM
same,TGI,CAKI-1 renal,> 56.2 µM
same,TGI,CCRF-CEM leukemia,55 µM
same,TGI,COLO 205 colon,66.3 µM
same,TGI,DLD-1 colon,78.5 µM
same,TGI,DMS 114 small cell lung,> 84.6 µM
same,TGI,DMS 273 small cell lung,> 65.1 µM
same,TGI,DU-145 prostate,> 100 µM
same,TGI,EKVX NSCLC,> 100 µM
same,TGI,HCC-2998 colon,> 100 µM
same,TGI,HCT-116 colon,> 76.3 µM
same,TGI,HCT-15 colon,62.2 µM
same,TGI,HL-60(TB) leukemia,50.6 µM
same,TGI,HOP-18 NSCLC,> 91.4 µM
same,TGI,HOP-62 NSCLC,> 100 µM
same,TGI,HOP-92 NSCLC,> 100 µM
same,TGI,HS 578T breast,> 100 µM
same,TGI,HT29 colon,> 79.2 µM
same,TGI,IGROV1 ovarian,> 100 µM
same,TGI,K-562 leukemia,74.5 µM
same,TGI,KM12 colon,> 100 µM
same,TGI,KM20L2 colon,> 100 µM
same,TGI,LOX IMVI melanoma,> 72.3 µM
same,TGI,LXFL 529 NSCLC,39.7 µM
same,TGI,M14 melanoma,67.1 µM
same,TGI,M19-MEL melanoma,> 70.3 µM
same,TGI,MALME-3M melanoma,> 100 µM
same,TGI,MCF7 breast,> 100 µM
same,TGI,MDA-MB-231 breast,> 100 µM
same,TGI,MDA-MB-435,> 100 µM
same,TGI,MDA-N,> 100 µM
same,TGI,MOLT-4 leukemia,71.2 µM
same,TGI,NCI-H226 lung,> 100 µM
same,TGI,NCI-H23 lung,> 100 µM
same,TGI,NCI-H460 lung,> 100 µM
same,TGI,NCI-H522 lung,61.4 µM
same,TGI,NCI/ADR-RES ovarian,> 100 µM
same,TGI,OVCAR-3 ovarian,95.5 µM
same,TGI,OVCAR-4 ovarian,> 100 µM
same,TGI,OVCAR-5 ovarian,> 100 µM
same,TGI,OVCAR-8 ovarian,> 94 µM
same,TGI,PC-3 prostate,> 100 µM
same,TGI,RPMI-8226 leukemia,> 89.2 µM
same,TGI,RXF 393 renal,> 100 µM
same,TGI,RXF-631 renal,> 100 µM
same,TGI,SF-268 CNS,> 100 µM
same,TGI,SF-295 CNS,> 100 µM
same,TGI,SF-539 CNS,> 100 µM
same,TGI,SK-MEL-2 melanoma,> 100 µM
same,TGI,SK-MEL-28 melanoma,> 90.2 µM
same,TGI,SK-MEL-5 melanoma,> 100 µM
same,TGI,SK-OV-3 ovarian,> 100 µM
same,TGI,SN12C renal,> 90.1 µM
same,TGI,SNB-19 CNS,> 100 µM
same,TGI,SNB-75 CNS,> 100 µM
same,TGI,SNB-78 CNS,> 100 µM
same,TGI,SR leukemia,> 100 µM
same,TGI,SW-620 colon,62.6 µM
same,TGI,T-47D breast,> 100 µM
same,TGI,TK-10 renal,> 76 µM
same,TGI,U251 CNS,> 100 µM
same,TGI,UACC-257 melanoma,71.3 µM
same,TGI,UACC-62 melanoma,> 100 µM
same,TGI,UO-31 renal,> 100 µM
same,TGI,XF 498 CNS,65.3 µM
O=C(NC(Cc1ccc(I)cc1)C(=O)O)c1cccc(Br)c1 (centres undefined),TGI,A498 renal,> 100 µM
same,TGI,A549 NSCLC,> 100 µM
same,TGI,CAKI-1 renal,> 100 µM
same,TGI,CCRF-CEM leukemia,> 100 µM
same,TGI,COLO 205 colon,> 100 µM
same,TGI,DLD-1 colon,> 100 µM
same,TGI,DMS 114 small cell lung,> 100 µM
same,TGI,DMS 273 small cell lung,> 100 µM
same,TGI,EKVX NSCLC,> 100 µM
same,TGI,HCC-2998 colon,> 93.1 µM
same,TGI,HCT-116 colon,> 100 µM
same,TGI,HCT-15 colon,> 100 µM
same,TGI,HL-60(TB) leukemia,> 100 µM
same,TGI,HOP-18 NSCLC,> 100 µM
same,TGI,HOP-62 NSCLC,> 100 µM
same,TGI,HOP-92 NSCLC,> 100 µM
same,TGI,HT29 colon,> 100 µM
same,TGI,IGROV1 ovarian,> 100 µM
same,TGI,K-562 leukemia,> 100 µM
same,TGI,KM12 colon,> 100 µM
same,TGI,KM20L2 colon,> 100 µM
same,TGI,LOX IMVI melanoma,> 100 µM
same,TGI,M19-MEL melanoma,> 100 µM
same,TGI,MALME-3M melanoma,> 100 µM
same,TGI,MCF7 breast,> 100 µM
same,TGI,MOLT-4 leukemia,> 100 µM
same,TGI,NCI-H226 lung,> 100 µM
same,TGI,NCI-H23 lung,> 100 µM
same,TGI,NCI-H460 lung,> 100 µM
same,TGI,NCI-H522 lung,> 100 µM
same,TGI,NCI/ADR-RES ovarian,> 100 µM
same,TGI,OVCAR-3 ovarian,> 100 µM
same,TGI,OVCAR-4 ovarian,> 100 µM
same,TGI,OVCAR-5 ovarian,> 100 µM
same,TGI,OVCAR-8 ovarian,> 100 µM
same,TGI,P388 leukemia,> 100 µM
same,TGI,P388/ADR leukemia,> 100 µM
same,TGI,RPMI-8226 leukemia,> 100 µM
same,TGI,SF-268 CNS,> 100 µM
same,TGI,SF-295 CNS,> 100 µM
same,TGI,SF-539 CNS,> 100 µM
same,TGI,SK-MEL-2 melanoma,> 100 µM
same,TGI,SK-MEL-28 melanoma,> 100 µM
same,TGI,SK-MEL-5 melanoma,> 100 µM
same,TGI,SK-OV-3 ovarian,> 100 µM
same,TGI,SN12C renal,> 100 µM
same,TGI,SN12K1 renal,> 100 µM
same,TGI,SNB-19 CNS,> 100 µM
same,TGI,SNB-75 CNS,> 100 µM
same,TGI,SNB-78 CNS,> 100 µM
same,TGI,SW-620 colon,> 100 µM
same,TGI,U251 CNS,> 100 µM
same,TGI,UACC-257 melanoma,> 100 µM
same,TGI,UACC-62 melanoma,> 100 µM
same,TGI,UO-31 renal,> 100 µM
